Data published in ChEMBL document CHEMBL1201862, “PubChem BioAssay data set” (2004).
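Assay format: 96-well plates, 48-hour exposure. GI50: concentration for 50% inhibition of growth.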 Activity calls are given as the source filed them. Rule as the data show it: active = GI50 up to about 1.1 µM and inactive = higher.

What was measured:
Assay in all cases: NCI tumour cell line growth inhibition, 48 h
[1] = system: T47D
[2] = system: Malme-3M
[3] = system: SNB-75
[4] = system: SF-268
[5] = system: MDA-MB-231
[6] = system: SF-295
[7] = system: NCI-H460
[8] = system: OVCAR-8
[9] = system: A498
[10] = system: NCI-H522
[11] = system: EKVX
[12] = system: SK-MEL-28
[13] = system: BT-549
[14] = system: A549
[15] = system: CAKI-1
[16] = system: LOX IMVI
[17] = system: MOLT-4
[18] = system: SK-MEL-2
[19] = system: HL-60
[20] = system: HT-29
[21] = system: SK-MEL-5
[22] = system: IGROV-1
[23] = system: SK-OV-3
[24] = system: SR
[25] = system: U-251
[26] = system: K562
[27] = system: OVCAR-4
[28] = system: SW-620
[29] = system: NCI-H226
[30] = system: MDA-N
[31] = system: SF-539
[32] = system: MDA-MB-435
[33] = system: M14
[34] = system: SN12C
[35] = system: UACC-257
[36] = system: SNB-19
[37] = system: Hs-578T
[38] = system: COLO 205
[39] = system: NCI/ADR-RES
[40] = system: HCT-15
[41] = system: TK-10
[42] = system: HOP-62
[43] = system: PC-3
[44] = system: RXF 393
[45] = system: 786-0
[46] = system: OVCAR-3
[47] = system: ACHN
[48] = system: NCI-H23
[49] = system: RPMI-8226
[50] = system: HOP-92
[51] = system: MCF7
[52] = system: HCT-116
[53] = system: HCC 2998
[54] = system: UO-31
[55] = system: OVCAR-5
[56] = system: DU-145

With N#CCCN(CCC#N)CCN(CCN(CCC#N)CCC#N)CCN(CCC#N)CCC#N as the compound, how does the GI50 [1] read?
Its GI50 is > 100 µM (inactive).

What about the GI50 [2] of the same compound?
Its GI50 is > 100 µM (inactive).

What about the GI50 [3] of the same compound?
The GI50 was > 100 µM (inactive).

And the GI50 [4]?
Its GI50 is > 100 µM (inactive).

And the GI50 [5]?
Its GI50 is > 100 µM (inactive).

And the GI50 [6]?
The GI50 was > 100 µM (inactive).

And the GI50 [7]?
The GI50 was > 100 µM (inactive).

What about the GI50 [8] of the same compound?
The GI50 was > 100 µM (inactive).

And the GI50 [9]?
Its GI50 is > 100 µM (inactive).

And the GI50 [10]?
The GI50 was > 100 µM (inactive).

What about the GI50 [11] of the same compound?
The GI50 was > 100 µM (inactive).

And the GI50 [12]?
Its GI50 is > 100 µM (inactive).

What about the GI50 [13] of the same compound?
Its GI50 is > 100 µM (inactive).

What about the GI50 [14] of the same compound?
Its GI50 is > 100 µM (inactive).

What about the GI50 [15] of the same compound?
The GI50 was > 100 µM (inactive).

And the GI50 [16]?
Its GI50 is > 100 µM (inactive).

And the GI50 [17]?
Its GI50 is > 100 µM (inactive).

And the GI50 [18]?
The GI50 was > 100 µM (inactive).

What about the GI50 [19] of the same compound?
The GI50 was > 100 µM (inactive).

And the GI50 [20]?
The GI50 was > 100 µM (inactive).

And the GI50 [21]?
The GI50 was > 100 µM (inactive).

What about the GI50 [22] of the same compound?
The GI50 was > 100 µM (inactive).

What about the GI50 [23] of the same compound?
The GI50 was > 100 µM (inactive).

And the GI50 [24]?
The GI50 was > 100 µM (inactive).

What about the GI50 [25] of the same compound?
Its GI50 is > 100 µM (inactive).

What about the GI50 [26] of the same compound?
Its GI50 is > 100 µM (inactive).

What about the GI50 [27] of the same compound?
The GI50 was > 100 µM (inactive).

What about the GI50 [28] of the same compound?
The GI50 was > 100 µM (inactive).

And the GI50 [29]?
Its GI50 is > 100 µM (inactive).

What about the GI50 [30] of the same compound?
The GI50 was > 100 µM (inactive).

What about the GI50 [31] of the same compound?
Its GI50 is > 100 µM (inactive).

And the GI50 [32]?
Its GI50 is > 100 µM (inactive).

What about the GI50 [33] of the same compound?
The GI50 was > 100 µM (inactive).

And the GI50 [34]?
Its GI50 is > 100 µM (inactive).

What about the GI50 [35] of the same compound?
The GI50 was > 100 µM (inactive).

And the GI50 [36]?
The GI50 was > 100 µM (inactive).

And the GI50 [37]?
Its GI50 is > 100 µM (inactive).

And the GI50 [38]?
The GI50 was > 100 µM (inactive).

And the GI50 [39]?
The GI50 was > 100 µM (inactive).

What about the GI50 [40] of the same compound?
Its GI50 is > 100 µM.

What about the GI50 [41] of the same compound?
Its GI50 is > 100 µM (inactive).

And the GI50 [42]?
The GI50 was > 100 µM (inactive).

And the GI50 [43]?
The GI50 was > 100 µM (inactive).

What about the GI50 [44] of the same compound?
The GI50 was > 100 µM (inactive).

And the GI50 [45]?
The GI50 was > 100 µM (inactive).

And the GI50 [46]?
The GI50 was > 100 µM (inactive).

And the GI50 [47]?
Its GI50 is > 100 µM (inactive).

And the GI50 [48]?
The GI50 was > 100 µM (inactive).

What about the GI50 [49] of the same compound?
Its GI50 is > 100 µM (inactive).

And the GI50 [50]?
The GI50 was > 100 µM (inactive).

And the GI50 [51]?
The GI50 was > 100 µM (inactive).

What about the GI50 [52] of the same compound?
Its GI50 is > 100 µM (inactive).

And the GI50 [53]?
Its GI50 is > 100 µM (inactive).

And the GI50 [54]?
The GI50 was > 100 µM (inactive).

And the GI50 [55]?
Its GI50 is > 100 µM (inactive).

What about the GI50 [56] of the same compound?
The GI50 was > 100 µM (inactive).
